Measurements from patent US11567011B2, “System and method for drug detection in exhaled breath” (Sensa Bues AB, priority 2009, dated 2023).

Experiments:
[1] = Example 2: methadone in exhaled breath collected on Empore C18 disc, UPLC-MS/MS; conditions: all 13 studied patients
[2] = Example 1: amphetamine and methamphetamine in expired air collected on SPE cartridge, SRM UPLC-MS/MS; conditions: all 12 studied patients

SMILES	detection in the sampled exhaled breath [1]	detection in the expired air sample [2]
CCC(=O)C(CC(C)N(C)C)(c1ccccc1)c1ccccc1 (centres unmarked) [methadone]	detected	–
CN[C@@H](C)Cc1ccccc1 [methamphetamine]	–	detected
